Results: patent US20040082623A1, “Fmoc-l-leucine and derivatives thereof as ppar-gamma agonists” (priority 2003, published 2004)

Columns and labels:
PPARγ = molecular target: T1, PPARγ (Homo sapiens, UniProt P37231); test: Protease protection (partial trypsin digestion of 35S-PPARγ); type: binding; settings: compound 10^−4M, increasing trypsin
T1 construct: a construct containing the entire cDNA of the human PPARγ2 (hPPARγ2); host or cells: cell-free coupled transcription/translation system
T1 sequence (P37231 1-505): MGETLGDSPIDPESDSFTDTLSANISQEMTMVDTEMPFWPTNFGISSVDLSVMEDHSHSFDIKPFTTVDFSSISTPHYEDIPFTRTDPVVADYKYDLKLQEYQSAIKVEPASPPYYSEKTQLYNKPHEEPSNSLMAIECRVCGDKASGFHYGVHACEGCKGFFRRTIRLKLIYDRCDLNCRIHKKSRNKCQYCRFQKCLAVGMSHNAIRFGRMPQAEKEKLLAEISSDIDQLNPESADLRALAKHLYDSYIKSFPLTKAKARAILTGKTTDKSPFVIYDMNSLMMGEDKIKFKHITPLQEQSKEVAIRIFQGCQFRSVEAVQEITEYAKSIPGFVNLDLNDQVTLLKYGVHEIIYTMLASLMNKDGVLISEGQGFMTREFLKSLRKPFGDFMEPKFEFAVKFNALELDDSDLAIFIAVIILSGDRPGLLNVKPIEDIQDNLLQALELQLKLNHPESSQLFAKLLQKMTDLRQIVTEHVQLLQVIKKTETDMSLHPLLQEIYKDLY
Experimental: The pSG5-hPPARγ2 plasmid was used to synthesize ? ^35S-radiolabeled PPARγ in a coupled transcription/translation system according to the protocol of the manufacturer (Promega, Madison, Wis.). The transcription/translation reactions were subsequently aliquoted into 22.5 μl and 2,5 μl of phosphate buffered saline +/− compound were added. The mixture was separated into 4.5 μl aliquots and 0.5 μl of distilled water or distilled water-solubilized trypsin were added. The protease digestion were allowed to proceed for 10 min at 25° C. and terminated by the addition denaturing loading buffer. After separation of the digestion products in a gel SDS ? PAGE 12% acrylamide, the gel was fixed in 10% acetic acid (v/v) 30% ethanol (v/v) ? for 30 min, treated in Amplify™ (Amersham, Orsay, France) and dried. The radiolabeled digestion products were visualized by autoradiography.

PPARγ2 = molecular target: T2, PPARγ2 (Homo sapiens, UniProt P37231); test: Transient transfection, PPARγ2 reporter in RK13 cells; type: cell-based; design: a construct containing the entire cDNA of the human PPARγ2 (hPPARγ2); expressed in transfected cells; host or cells: Hep G2, RK13 or CV1 cells
T2 sequence (P37231 1-505): T1 sequence (P37231 1-505)
Experimental: RK13 cells (A and D), CV1 cells (B) or Hep G2 cells (C) were co-transfected with an expression vector for PPARγ2 (0.1 μg/well), pGL3-(Jwt)3TKLuc reported construct (0.5 μg/well), and pCMV-βGal (0.5 μg/well), as a control of transfection efficiency (0.5 μg/well). They were then grown during 24 h in the presence or absence of indicated compound. Activation is expressed as relative luciferase activity/β ? galactosidase activity. Each point was performed in triplicate, and each figure i ? representative of four independent experiments.
The CV1, RK-13, and Hep G2 cell lines were obtained from ATCC (Rockville, Md.). Cells were maintained in Dulbecco's modified Eagle's minimal essential medium (DMEM) supplemented with 10% fetal calf serum (FCS), L-glutamine, and antibiotics. Transfections with chloramphenicol acetyltransferase (CAT) or luciferase (luc.) reporter constructs were carried out exactly as described previously (Schoonjans et al., 1996). The pGL3-(Jwt)3TKLuc and the pGL3-(Jwt)3TKCAT reporter constructs contain both three tandem repeats of the J site of the apolipoprotein A-II promoter cloned upstream of the herpes simplex virus thymidine kinase (TK) promoter and the luciferase or the CAT reporter genes respectively (Vu-Dac et al., 1995). The following expression vectors were used; pSG5-hPPARγ2, a construct containing the entire cDNA of the human PPARγ2 (hPPARγ2) (Fajas et al., 1997); pSG5-mPPARα (Isseman et al., 1993); and pCMV-βGal, as a control of transfection efficiency.

PPARγ DE/p300Nt-GST = PPARγ DE/p300Nt-GST (Homo sapiens, UniProt P37231)
Chain of PPARγ DE/p300Nt-GST (Q09472 2-516 partner limits assumed, one chain of several): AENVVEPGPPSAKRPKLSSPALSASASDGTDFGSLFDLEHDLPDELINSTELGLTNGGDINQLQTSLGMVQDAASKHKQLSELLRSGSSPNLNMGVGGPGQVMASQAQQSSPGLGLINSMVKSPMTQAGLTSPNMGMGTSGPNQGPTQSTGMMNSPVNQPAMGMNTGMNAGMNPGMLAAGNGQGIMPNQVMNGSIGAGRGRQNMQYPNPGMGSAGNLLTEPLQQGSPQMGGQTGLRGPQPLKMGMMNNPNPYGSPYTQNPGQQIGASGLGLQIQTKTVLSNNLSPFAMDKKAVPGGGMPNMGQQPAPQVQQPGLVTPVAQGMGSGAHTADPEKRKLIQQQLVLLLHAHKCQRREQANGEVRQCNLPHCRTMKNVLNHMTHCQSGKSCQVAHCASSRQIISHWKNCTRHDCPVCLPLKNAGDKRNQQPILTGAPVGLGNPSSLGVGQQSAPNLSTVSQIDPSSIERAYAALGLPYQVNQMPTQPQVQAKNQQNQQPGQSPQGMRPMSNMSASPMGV
Text: The beads were then washed and the samples separated on SDS-PAGE and blotted. The blot was developed with anti-histidine antibodies.
The p300Nt-GST, fusion protein was generated by cloning the N-terminal part of the p300 protein (a.a. 2 to 516) downstream of the glutathione-S-transferase (GST) protein in the pGex-T1 vector (Pharmacia, Orsay, France). The fusion proteins were then expressed in Escherichia coli and purified on a glutathione affinity matrix (Pharmacia). Human PPARγ (aa. 203 to 477 of PPARγ) was subcloned into the pET15b (Novagen, Madison, Wis.) expression vector. The his-tagPPARγ2DE203-477 proteins were produced as follow. The protein was purified using a metal chelate affinity column with an affinity column Co^2+ coupled agarose (High Trap chelatin, Pharmacia). The protein was eluted with 20 mM Tris-HCl, 500 M NaCl, 130 mM imidazole and 1-2 propanediol 2.5% (pH 8.5). A second purification step was made by gel filtration (Superdex 200 16/60, Pharmacia). The protein was eluted with 20 mM Tris-HCl, 100 mM NaCl, 5 mM DTT and 1-2 propanediol 2,5% (pH 8.5).

C57BL/6j mice = test: Intraperitoneal glucose tolerance test in C57BL/6j mice; type: in vivo; settings: for maximum glucose levels in IPGTT: 7 days, control 440
Experimental: Mice were treated with 2 different doses of F-L-Leu (10 and 30 mg/kg/days) during 7 days and then IPGTT was performed.

Experimental for db/db mice: Intraperitoneal glucose tolerance test (IPGTT) in C57BL/6j (A) or db/db (B) mice 10 to 12 weeks old (n=8).
All mice were maintained in a temperature-controlled (25° C.) facility with a strict 12 h ? light/dark cycle and were given free access to food (standard mice chow; DO4, UAR ? France) and water.
C57B1/6J and db/db mice (8 per group) were obtained through the Janvier laboratorie ? (Laval-Le Genest, France).

CC(C)CC(NC(=O)OCC1c2ccccc2-c2ccccc21)C(=O)O [F-L-Leu, N-(9-fluroroenylmethyloxycarbonyl)-L-Leucine]
liver weight relative to control or rosiglitazone-treated mice (db/db mice; data not shown): tendency to diminution of the liver weight | insulin sensitivity compared with an equivalent dose of rosiglitazone (db/db mice; db/db mice, 1 mg/kg/day as printed): improved insulin sensitivity more dramatically | maximal glycemia in IPGTT (db/db mice; db/db, 10 mg/kg/day i.p., 7 days, DMSO control 500): 420 mg/dL | time of maximal glucose level after glucose injection (db/db mice; db/db, 10 mg/kg/day, 7 days): 20 min | time to decrease to normal (100 mg/dl) glucose values (db/db mice; db/db, 10 mg/kg/day, 7 days): ≤ 120 min | fasting serum insulin levels (mean) (db/db mice; db/db, 7 days treatment, DMSO group 180): 70 μUI/mL | protection of PPARγ from trypsin digestion (conformation change) (PPARγ): produced a protease protection | concentration giving maximal PPARγ activation (PPARγ2; RK13 cells): 10^−5 M | modification of PPARγ activity when added to a saturating concentration of rosiglitazone (PPARγ2; RK13 cells, 10^−5 M added): No significant modification | concentration of optimal PPARγ activity / activation (PPARγ2; rabbit kidney RK13 cells): 10^−5 M | potency relative to rosiglitazone (fold lower) (PPARγ DE/p300Nt-GST; p300 pull-down): 2- to 3 fold | formation of PPARγ DE/p300Nt-GST complexes (PPARγ DE/p300Nt-GST; vs DMSO, rosiglitazone 10^−4 M, F-L-Leu 10^−3 M): effectively induced | insulin sensitivity in normal animals (C57BL/6j mice; 30 mg/kg/day): significantly improve insulin sensitivity | clearance of intraperitoneally administered glucose vs vehicle (C57BL/6j mice; C57BL/6j, 10 mg/kg/day): comparable rate | maximum glucose levels in IPGTT (C57BL/6j mice; C57BL/6j, 10 mg/kg/day i.p.): 440 mg/dL | maximum glucose levels in IPGTT (C57BL/6j mice; C57BL/6j, 30 mg/kg/day i.p.): 320 mg/dL | area under the curve in IPGTT (C57BL/6j mice; C57BL/6j, 30 mg/kg/day, vs control or lower dose): significantly lower
